Target: Serine/threonine-protein kinase pim-2 (Homo sapiens, UniProt Q9P1W9)
Test: Pim Kinase Dose-Response Assay
Conditions: pH 7.5; 22 °C

Serine/threonine-protein kinase pim-2, sequence (Q9P1W9 whole entry): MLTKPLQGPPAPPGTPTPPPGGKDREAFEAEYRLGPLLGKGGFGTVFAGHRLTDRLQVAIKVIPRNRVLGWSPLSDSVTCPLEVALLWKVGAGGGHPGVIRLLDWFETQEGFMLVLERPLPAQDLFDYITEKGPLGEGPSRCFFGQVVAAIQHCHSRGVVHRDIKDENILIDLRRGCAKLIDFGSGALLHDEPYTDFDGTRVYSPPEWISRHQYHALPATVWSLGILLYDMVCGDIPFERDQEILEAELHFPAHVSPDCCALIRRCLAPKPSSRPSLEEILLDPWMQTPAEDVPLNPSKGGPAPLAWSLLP

IC50 | Compound
0.16 µM | CN1CCCN(c2cncc(-c3cccc(C=Cc4nnn[nH]4)c3)n2)CC1 [1-methyl-4-(6-{3-[(E)-2-(1H-1,2,3,4-tetrazol-5-yl)ethenyl]phenyl}pyrazin-2-yl)-1,4-diazepane]
> 8 µM | CN1CCCN(c2cnccn2)CC1 [1-methyl-4-(pyrazin-2-yl)-1,4-diazepane]
